{
  "source": "patent US20090176817A1",
  "about": "“Method of Treatment of Diarrhea-Predominant Irritable Bowel Syndrome in a Subject” (priority 2005, published 2009)",
  "system": "diarrhea-predominant IBS subjects",
  "experiment": "Study S241.3.009: weekly diary questions on adequate relief",
  "type": "in vivo, human",
  "details": "for Overall responder rate, IBS symptoms / Overall responder rate, abdominal pain/discomfort / Overall responder rate, abnormal bowel habits: 26 weeks",
  "description": "Study S241.3.009 was a Phase III, a double-blind, placebo-controlled, randomized, multinational study to investigate the safety and efficacy of 2 mg TID of cilansetron over 26 weeks in diarrhea-predominant IBS subjects. The study was conducted in 146 multinational study centers. A total of 1307 subjects consented to participate, and 806 subjects were randomized. A total of 792 subjects were analyzed for efficacy and 799 subjects were analyzed for safety. Diagnosis and main criteria for inclusion were IBS subjects satisfying the Rome I criteria (1992); the diarrhea-predominant sub-population of the Rome II criteria; and a minimum abdominal pain/discomfort, stool frequency and consistency determined during the run-in period. Subjects were treated with cilansetron 2 mg tablets given orally TID or matching placebo tablets given orally TID for 26 weeks.\nThe primary efficacy parameter was the overall response rate for IBS symptoms, based on the weekly question concerning adequate relief of IBS symptoms (abdominal pain/discomfort, abnormal bowel habits) over the 26 weeks period. A responder was a subject who responded “yes” at least 50% of the time during his/her treatment period, with minimum treatment duration of four weeks. The two main secondary efficacy parameters were overall responder rate based on the weekly question on adequate relief of abdominal pain/discomfort and abnormal bowel habits during the 26-week treatment period. The onset of action of cilansetron was also examined using daily diary data (stool frequency, and ratings of urgency and severity) during the initial 8 weeks of trial participation. An additional key secondary efficacy parameter was the number of months (one month equals four weeks) up to six months (24-weeks) that a subject was a responder for IBS symptoms, where a responder was defined as a subject who answered the weekly question with “yes” at least twice for that month. The responder rate for the weekly diary questions on adequate relief at each month and all months, the adequate relief rate, the number of subjects with adequate relief by week, daily diary questions, IBS-QOL scores, and the interruption of activities were also assessed. Safety was evaluated by physical examination, ECG, vital signs, laboratory evaluations, concomitant medications, and AEs.\nStudies S24 1.3.OO6, S24 1.3.0 1 1, and S24 1.3.009 used the following efficacy measurements: • The subjects answered the following three questions with “yes” or “no” using a phone diary at the end of each week: • a) During the last week, did you experience adequate relief of your IBS symptoms, such as abdominal pain, abdominal discomfort, abnormal bowel habits? • b) During the last week, did you experience adequate relief of your abdominal pain and/or discomfort? • c) During the last week, did you experience adequate relief of your abnormal bowel habits? • The subjects rated the following symptoms using the phone diary at the end of each day: • abdominal pain/discomfort (five-point scale); • stool consistency (seven-point Bristol Stool Scale); • stool frequency (number of bowel movements each day); • urgency (five-point scale); • straining (yes or no); • feeling of incomplete defecation (yes or no); • bloating or feeling of abdominal distension (five-point scale). • In Studies S241 A006 and S241.3.009, subjects completed the IBS-QOL Survey at Baseline (Day 1) and at the end of treatment. In Study S24 1.3.0 1 1, subjects completed the IBS-QOL Survey at Baseline (Day 1), at the end of the three-month treatment period, and at the end of rerandomized treatment.\nIn all three pivotal efficacy studies, the primary and main secondary efficacy parameters were based on the weekly diary questions on adequate relief and included the following: • 1. Number of months (one month equals four weeks) that a subject was a responder for the weekly diary questions on adequate relief. […]",
  "key": {"[1]": {"details": "2 mg TID, 26-week treatment period, observed case, ITT N = 395"}, "[2]": {"details": "2 mg TID, Months 1 to 3, monthly LOCF, ITT N = 395"}, "[3]": {"details": "2 mg TID, Months 1 to 3, observed case, ITT N = 395"}, "[4]": {"details": "2 mg TID, Months 1 to 6, monthly LOCF, ITT N = 395"}, "[5]": {"details": "Baseline BMI: <30 kg/m^2, 26-week treatment period, observed case, ITT, 2 mg TID"}, "[6]": {"details": "Baseline BMI: <30 kg/m^2, Months 1 to 3, monthly LOCF, ITT, 2 mg TID"}},
  "data": [
    {"smiles": "Cc1nccn1C[C@H]1CCc2c(c3cccc4c3n2CCC4)C1=O", "note": "[Cilansetron, (R)-(−)-4,5,6,8,9,10-hexahydro-10-[(2-methyl-1H-imidazol-1-yl)methyl]-11H-pyrido-[3,2,1-jk]-carbazol-11-one]", "values": [
      {"measurement": "Overall responder rate, adequate relief of IBS symptoms", "setting": "[1]", "result": "234 (59) n (%)"},
      {"measurement": "Overall responder rate, adequate relief of abdominal pain/discomfort", "setting": "[1]", "result": "239 (61) n (%)"},
      {"measurement": "Overall responder rate, adequate relief of abnormal bowel habits", "setting": "[1]", "result": "253 (64) n (%)"},
      {"measurement": "Subjects who were responders for One month, Abdominal pain/discomfort", "setting": "[2]", "result": "61 (15) n (%)"},
      {"measurement": "Subjects who were responders for One month, Abnormal bowel habits", "setting": "[2]", "result": "49 (12) n (%)"},
      {"measurement": "Subjects who were responders for One month, IBS symptoms", "setting": "[2]", "result": "55 (14) n (%)"},
      {"measurement": "Subjects who were responders for Three months, Abdominal pain/discomfort", "setting": "[2]", "result": "159 (40) n (%)"},
      {"measurement": "Subjects who were responders for Three months, Abnormal bowel habits", "setting": "[2]", "result": "165 (42) n (%)"},
      {"measurement": "Subjects who were responders for Three months, IBS symptoms", "setting": "[2]", "result": "150 (38) n (%)"},
      {"measurement": "Subjects who were responders for Two months, Abdominal pain/discomfort", "setting": "[2]", "result": "70 (18) n (%)"},
      {"measurement": "Subjects who were responders for Two months, Abnormal bowel habits", "setting": "[2]", "result": "83 (21) n (%)"},
      {"measurement": "Subjects who were responders for Two months, IBS symptoms", "setting": "[2]", "result": "80 (20) n (%)"},
      {"measurement": "Subjects who were responders for Zero months, Abdominal pain/discomfort", "setting": "[2]", "result": "105 (27) n (%)"},
      {"measurement": "Subjects who were responders for Zero months, Abnormal bowel habits", "setting": "[2]", "result": "98 (25) n (%)"},
      {"measurement": "Subjects who were responders for Zero months, IBS symptoms", "setting": "[2]", "result": "110 (28) n (%)"},
      {"measurement": "Overall responder rate, adequate relief of IBS symptoms", "setting": "[3]", "result": "219 (55) n (%)"},
      {"measurement": "Overall responder rate, adequate relief of abdominal pain/discomfort", "setting": "[3]", "result": "221 (56) n (%)"},
      {"measurement": "Overall responder rate, adequate relief of abnormal bowel habits", "setting": "[3]", "result": "243 (62) n (%)"},
      {"measurement": "Subjects who were responders for Five months, Abdominal pain/discomfort", "setting": "[4]", "result": "53 (13) n (%)"},
      {"measurement": "Subjects who were responders for Five months, Abnormal bowel habits", "setting": "[4]", "result": "61 (15) n (%)"},
      {"measurement": "Subjects who were responders for Five months, IBS symptoms", "setting": "[4]", "result": "58 (15) n (%)"},
      {"measurement": "Subjects who were responders for Four months, Abdominal pain/discomfort", "setting": "[4]", "result": "41 (10) n (%)"},
      {"measurement": "Subjects who were responders for Four months, Abnormal bowel habits", "setting": "[4]", "result": "41 (10) n (%)"},
      {"measurement": "Subjects who were responders for Four months, IBS symptoms", "setting": "[4]", "result": "52 (13) n (%)"},
      {"measurement": "Subjects who were responders for One month, Abdominal pain/discomfort", "setting": "[4]", "result": "26 (7) n (%)"},
      {"measurement": "Subjects who were responders for One month, Abnormal bowel habits", "setting": "[4]", "result": "17 (4) n (%)"},
      {"measurement": "Subjects who were responders for One month, IBS symptoms", "setting": "[4]", "result": "25 (6) n (%)"},
      {"measurement": "Subjects who were responders for Six months, Abdominal pain/discomfort", "setting": "[4]", "result": "133 (34) n (%)"},
      {"measurement": "Subjects who were responders for Six months, Abnormal bowel habits", "setting": "[4]", "result": "136 (34) n (%)"},
      {"measurement": "Subjects who were responders for Six months, IBS symptoms", "setting": "[4]", "result": "121 (31) n (%)"},
      {"measurement": "Subjects who were responders for Three months, Abdominal pain/discomfort", "setting": "[4]", "result": "31 (8) n (%)"},
      {"measurement": "Subjects who were responders for Three months, Abnormal bowel habits", "setting": "[4]", "result": "33 (8) n (%)"},
      {"measurement": "Subjects who were responders for Three months, IBS symptoms", "setting": "[4]", "result": "25 (6) n (%)"},
      {"measurement": "Subjects who were responders for Two months, Abdominal pain/discomfort", "setting": "[4]", "result": "26 (7) n (%)"},
      {"measurement": "Subjects who were responders for Two months, Abnormal bowel habits", "setting": "[4]", "result": "22 (6) n (%)"},
      {"measurement": "Subjects who were responders for Two months, IBS symptoms", "setting": "[4]", "result": "24 (6) n (%)"},
      {"measurement": "Subjects who were responders for Zero months, Abdominal pain/discomfort", "setting": "[4]", "result": "85 (22) n (%)"},
      {"measurement": "Subjects who were responders for Zero months, Abnormal bowel habits", "setting": "[4]", "result": "85 (22) n (%)"},
      {"measurement": "Subjects who were responders for Zero months, IBS symptoms", "setting": "[4]", "result": "90 (23) n (%)"},
      {"measurement": "Overall responder rate, IBS symptoms", "setting": "females", "result": 63, "unit": "%"},
      {"measurement": "Overall responder rate, abdominal pain/discomfort", "setting": "females", "result": 64, "unit": "%"},
      {"measurement": "Overall responder rate, abnormal bowel habits", "setting": "females", "result": 67, "unit": "%"},
      {"measurement": "Overall responder rate, IBS symptoms", "setting": "males", "result": 55, "unit": "%"},
      {"measurement": "Overall responder rate, abdominal pain/discomfort", "setting": "males", "result": 57, "unit": "%"},
      {"measurement": "Overall responder rate, abnormal bowel habits", "setting": "males", "result": 60, "unit": "%"},
      {"measurement": "Overall responder rate, abdominal pain/discomfort", "setting": "observed case", "result": 61, "unit": "%"},
      {"measurement": "Overall responder rate, abnormal bowel habits", "setting": "observed case", "result": 64, "unit": "%"},
      {"measurement": "Overall responder rate, IBS symptoms", "setting": "observed case, ITT", "result": 59, "unit": "%"},
      {"measurement": "Overall responder rate, IBS symptoms", "setting": "weekly LOCF", "result": 60, "unit": "%"},
      {"measurement": "Overall responder rate, abdominal pain/discomfort", "setting": "weekly LOCF", "result": 61, "unit": "%"},
      {"measurement": "Overall responder rate, abnormal bowel habits", "setting": "weekly LOCF", "result": 63, "unit": "%"},
      {"measurement": "Overall responder rate difference vs placebo across diary questions", "setting": "BMI≧30 kg/m^2", "result": "−10% to −1"},
      {"measurement": "Overall responder rate, adequate relief of IBS symptoms", "setting": "[5]", "result": "207 (63) n (%)"},
      {"measurement": "Overall responder rate, adequate relief of abdominal pain/discomfort", "setting": "[5]", "result": "207 (63) n (%)"},
      {"measurement": "Overall responder rate, adequate relief of abnormal bowel habits", "setting": "[5]", "result": "220 (67) n (%)"},
      {"measurement": "Number of months a subject was a responder: One month (Abdominal pain/discomfort)", "setting": "[6]", "result": "51 (15) n (%)"},
      {"measurement": "Number of months a subject was a responder: One month (Abnormal bowel habits)", "setting": "[6]", "result": "39 (12) n (%)"},
      {"measurement": "Number of months a subject was a responder: One month (IBS symptoms)", "setting": "[6]", "result": "49 (15) n (%)"},
      {"measurement": "Number of months a subject was a responder: Three months (Abdominal pain/discomfort)", "setting": "[6]", "result": "139 (42) n (%)"},
      {"measurement": "Number of months a subject was a responder: Three months (Abnormal bowel habits)", "setting": "[6]", "result": "144 (44) n (%)"}
    ]}
  ]
}
